This is an account of results in ChEMBL document CHEMBL2040712, “Design and synthesis of a second series of triazole-based compounds as potent dual mPGES-1 and 5-lipoxygenase inhibitors” (Eur J Med Chem, 2012).

The target in assay [1] is T1, Prostaglandin E synthase (Homo sapiens, UniProt O14684).
T1 sequence (O14684 whole entry): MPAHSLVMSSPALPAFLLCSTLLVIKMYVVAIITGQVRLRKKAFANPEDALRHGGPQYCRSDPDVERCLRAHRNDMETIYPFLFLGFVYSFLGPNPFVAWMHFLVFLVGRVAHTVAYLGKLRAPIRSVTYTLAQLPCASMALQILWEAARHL
Put plainly: Inhibition of mPGES1 in IL-1beta-stimulated human A549 cell assessed as inhibition of PGE2 production preincubated for 15 mins before substrate addition by RP-HPLC method.

Assay [2] addresses T2, Prostaglandin E synthase (Homo sapiens) (UniProt O14684).
T2 sequence (whole entry): T1 sequence (O14684 whole entry)
Put plainly: Inhibition of mPGES1 in IL-1beta-stimulated human A549 cell assessed as remaining activity measuring of PGE2 level at 10 uM preincubated for 15 mins before substrate addition by RP-HPLC method.

The target in assay [3] is T3, Polyunsaturated fatty acid 5-lipoxygenase (Homo sapiens, UniProt P09917).
T3 sequence (P09917 whole entry): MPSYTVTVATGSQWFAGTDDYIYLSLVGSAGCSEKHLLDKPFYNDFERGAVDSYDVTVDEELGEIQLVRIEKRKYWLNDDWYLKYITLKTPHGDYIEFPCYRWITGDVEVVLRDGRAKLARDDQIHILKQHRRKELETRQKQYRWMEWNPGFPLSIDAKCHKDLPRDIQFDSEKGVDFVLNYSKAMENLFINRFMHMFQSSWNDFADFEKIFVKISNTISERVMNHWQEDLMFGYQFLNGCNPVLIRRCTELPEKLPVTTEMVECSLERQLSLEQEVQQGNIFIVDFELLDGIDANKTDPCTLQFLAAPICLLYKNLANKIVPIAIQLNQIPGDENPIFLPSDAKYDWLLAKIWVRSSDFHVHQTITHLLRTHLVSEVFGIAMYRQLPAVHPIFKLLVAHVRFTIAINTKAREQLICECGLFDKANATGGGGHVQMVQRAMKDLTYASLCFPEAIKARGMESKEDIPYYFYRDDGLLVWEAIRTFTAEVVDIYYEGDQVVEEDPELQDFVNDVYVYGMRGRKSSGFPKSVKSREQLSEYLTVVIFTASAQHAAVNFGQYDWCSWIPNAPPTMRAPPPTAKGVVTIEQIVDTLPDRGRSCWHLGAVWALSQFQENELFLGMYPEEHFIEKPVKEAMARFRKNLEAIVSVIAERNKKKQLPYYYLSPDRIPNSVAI
Kind of assay: Inhibition of human recombinant 5-lipoxygenase in cell-free system preincubated for 10 mins before substrate arachidonic acid addition measured after 10 mins by RP-HPLC method.

Assay [4] concerns the target T3, Polyunsaturated fatty acid 5-lipoxygenase. Put plainly: Inhibition of 5-lipoxygenase in human neutrophil preincubated for 15 mins before substrate arachidonic acid addition measured after 10 mins by HPLC method.
The target of assay [5] is T4, Polyunsaturated fatty acid 5-lipoxygenase (Homo sapiens) (UniProt P09917).
T4 sequence (whole entry): T3 sequence (P09917 whole entry)
Kind of assay: Inhibition of human recombinant 5-lipoxygenase in cell-free system assessed as remaining activity at 10 uM preincubated for 10 mins before substrate arachidonic acid addition measured after 10 mins by RP-HPLC method.

Assay [6] deals with T4, Polyunsaturated fatty acid 5-lipoxygenase (Homo sapiens). Kind of assay: Inhibition of 5-lipoxygenase in human neutrophil assessed as remaining activity at 10 uM preincubated for 15 mins before substrate arachidonic acid addition measured after 10 mins by HPLC method.
The species named for assay [7] is Rattus norvegicus. Put plainly: Inhibition of mPGES1 in rat microsomal membranes assessed as inhibition of PGE2 production at 10 uM after 40 seconds by enzyme immunoassay. The note with it: Microsome. It is filed as microsomes.

The term IC50 denotes the concentration that gives 50% inhibition. On to `O=C(O)c1ccc(Cn2cc(-c3ccc(-c4cccc(C(=O)N5CCOCC5)c4)cc3)nn2)c([N+](=O)[O-])c1`, for which the IC50 in assay [1], in assay [3] and in assay [4] was above 10 µM throughout. Besides, the values for the Activity in assay [2], in assay [5] and in assay [6] were 88.9%, 62.7% and 125%, respectively.

Turning to `O=C(O)c1ccc(S(=O)(=O)n2cc(-c3ccc(-c4ccccc4COc4cc(C(F)(F)F)ccc4Cl)cc3)nn2)cc1`, the IC50 is above 10 µM in assay [1], 1.96 µM in assay [3] and 1.2 µM in assay [4]. Moreover, the Activity in assay [2] was 78.6%.

Consider `O=C(O)c1ccc(Cn2cc(-c3ccc(-c4ccccc4C(=O)O)cc3)nn2)c([N+](=O)[O-])c1`, for which the half-inhibitory concentration (IC50) in assay [1], in assay [3] and in assay [4] was above 10 µM throughout. The results for the Activity in assay [2], in assay [5] and in assay [6] were 94.1%, 75.3% and 65.9%, respectively.

`COc1cc(-c2ccc(-c3cn(Cc4ccc(C(=O)O)cc4[N+](=O)[O-])nn3)cc2)cc(OC)c1OC`: the IC50 in assay [1], in assay [3] and in assay [4] was above 10 µM each time. The figures for the Activity in assay [2], in assay [5] and in assay [6] were 54.3%, 64.3% and 90.2%, respectively.

With `O=C(O)c1cccc(-c2ccc(-c3cn(Cc4ccc(C(=O)O)cc4[N+](=O)[O-])nn3)cc2)c1`, the IC50 in assay [1], in assay [3] and in assay [4] was above 10 µM each time. In addition, the figures for the Activity in assay [2], in assay [5] and in assay [6] were 82.1%, 74.7% and 124%, respectively.

Regarding `CN(C)c1ccc2cc(S(=O)(=O)Nc3ccc(-c4ccc(-c5cn(Cc6ccc(C(=O)O)cc6[N+](=O)[O-])nn5)cc4)cc3)ccc2c1`, the IC50 in assay [1] is above 10 µM; in assay [3] it was 6.1 µM; in assay [4], above 10 µM. Further, the Activity in assay [2] stood at 72.5%; in assay [6], 96.5%.

As to `O=C(O)c1ccc(Cn2cc(-c3ccc(-c4cccs4)cc3)nn2)c([N+](=O)[O-])c1`, the figures for the IC50 in assay [1], in assay [3] and in assay [4] were 5.5 µM, above 10 µM and above 10 µM, respectively. Also, the Activity came to 52.2% in assay [5] and 89.7% in assay [6].

For orientation: inhibition means the relative decrease from the control value, in per cent. As for `CC(C)c1ccc2c(c1)c(SC(C)(C)C)c(CC(C)(C)C(=O)O)n2Cc1ccc(Cl)cc1`, the inhibition in assay [7] was 82%.

As to `COc1ccc(-c2ccc(-c3cn(Cc4ccc(C(=O)O)cc4[N+](=O)[O-])nn3)cc2)cc1CN1CCOCC1`, the IC50 in assay [1], in assay [3] and in assay [4] was above 10 µM each time. In addition, the values for the Activity in assay [2], in assay [5] and in assay [6] were 87.4%, 84.9% and 111%, respectively.

Regarding `O=C(O)c1ccc(Cn2cc(-c3ccc(-c4ccccc4)cc3)nn2)c([N+](=O)[O-])c1`, the IC50 in assay [1] was below 3.2 µM.

Turning to `O=C(O)c1ccc(-c2ccc(-c3cn(Cc4ccc(C(=O)O)cc4[N+](=O)[O-])nn3)cc2)cc1`, the concentration for half-maximal inhibition (IC50) in assay [1] is above 10 µM; in assay [3] it was above 5 µM; in assay [4], above 5 µM. Also, the Activity in assay [2] turned out to be 93%.

Consider `Nc1cc(C(=O)O)ccc1Cn1cc(-c2ccc(-c3ccccc3COc3cc(C(F)(F)F)ccc3Cl)cc2)nn1`, for which the IC50 came to 0.68 µM in assay [1], 0.9 µM in assay [3] and 2.1 µM in assay [4].

In the case of `O=C(O)c1ccc(Cn2cc(-c3ccc(-c4ccccc4COc4cc(C(F)(F)F)ccc4Cl)cc3)nn2)cc1`, the IC50 in assay [1] came to 1 µM; in assay [3] it was 1.47 µM; in assay [4], 2 µM.

Regarding `O=C(O)c1ccc(Cn2cc(-c3ccc(-c4ccccc4COc4cc(C(F)(F)F)ccc4Cl)cc3)nn2)c([N+](=O)[O-])c1`, the IC50 was determined as 1.2 µM in assay [1], 2 µM in assay [3] and 5.3 µM in assay [4].

Take `O=C(O)c1ccc(Cn2cc(-c3ccc(-c4cccc(O)c4)cc3)nn2)c([N+](=O)[O-])c1`: the IC50 in assay [1], in assay [3] and in assay [4] was above 10 µM throughout. Also, the Activity was 55.6% in assay [2], 80.2% in assay [5] and 114% in assay [6].

Take `Nc1ccc(-c2ccc(-c3cn(Cc4ccc(C(=O)O)cc4[N+](=O)[O-])nn3)cc2)cc1`: the 50% inhibitory concentration (IC50) in assay [1], in assay [3] and in assay [4] was above 10 µM throughout. Also, the Activity in assay [2] is 65.5%; in assay [5] it was 63.5%; in assay [6] it was 100%.

For the compound `O=C(O)c1ccc(Cn2cc(-c3ccc(-c4ccc(O)cc4)cc3)nn2)c([N+](=O)[O-])c1`, the IC50 is above 10 µM in assay [1], 6.8 µM in assay [3] and above 10 µM in assay [4]. Also, the Activity in assay [2] came to 74.2%; in assay [6], 108%.
